# Reference: US11491134B2, “Composition for inhibiting skin cell proliferation and/or anti-inflammation method for inhibiting skin cell proliferation and/or anti-inflammation and method for treating skin diseases and/or inflammatory diseases” (Industrial Technology Research Institute, priority 2019, dated 2022)
# Tested on: macrophages, RAW264.7 cells
# Test: Inhibition rate on inflammation (anti-inflammatory activity): nitric oxide, Griess reagent, LPS-treated macrophages
# Type: cell-based
# Conditions: Mus musculus; for inhibition at 1.5625 µM: apigenin 1.5625 μM/0.42 μg/mL; for inhibition at 3.125 µM: apigenin 3.125 μM/0.84 μg/mL; for inhibition at 6.25 µM: apigenin 6.25 μM/1.69 μg/mL; for inhibition at 12.5 µM: apigenin 12.5 μM/3.38 μg/mL; for inhibition at 25 µM: apigenin 25 μM/6.76 μg/mL; for inhibition at 50 µM: apigenin 50 μM/13.51 μg/mL; for inhibition at 0.625 µM: apigenin 0.625 μM/0.17 μg/mL; for inhibition at 1.25 µM: apigenin 1.25 μM/0.34 μg/mL; for inhibition at 2.5 µM: apigenin 2.5 μM/0.68 μg/mL; for inhibition at 5 µM: apigenin 5 μM/1.35 μg/mL; for inhibition at 10 µM: apigenin 10 μM/2.70 μg/mL; for inhibition at 0.3125 µM: apigenin 0.3125 μM/0.08 μg/mL
# Protocol: Dimethyl sulfoxide (DMSO) was used as a solvent to prepare apigenin test samples with different concentrations and luteolin test samples with different concentrations. 9 batches of experiments were performed, which respectively were Batch 1 to Batch 9. There were 6 independent experiments in each batch of experiments. In each independent experiment, inhibition rate of an apigenin test sample with a specific concentration on inflammation and inhibition rate of a luteolin test sample with a specific concentration on inflammation were determined, and inhibition rate of a combination of an apigenin test sample with the said specific concentration and a luteolin test sample with the said specific concentration on inflammation was determined. Between the independent experiments, concentrations of apigenin test samples used were different, and concentrations of luteolin test samples used were also different, however, mole ratios or weight ratios of apigenin test samples to luteolin test samples were the same. Moreover, between the batches of experiments, mole ratios or weight ratios of apigenin test samples to luteolin test samples were different. 5×10^4 macrophages, RAW264.7 cells, were inoculated in a 96-well culture plate and then placed in a 37° C. and 5% CO2 incubator for culturing overnight. After overnight culture, the supernatant was removed, and lipopolysaccharide (LPS) (50 ng/mL) and a test sample was added to the cells (refer to Table 2, and the cells of the induced group were treated with lipopolysaccharide and dimethyl sulfoxide while the cells of the control group were only treated with dimethyl sulfoxide) for reaction for 24 hours. Thereafter, the supernatant of each well in the culture plate was transferred to a new culture plate and reacted with Griess reagent (Promega, Cat. No. G2930), respectively, and then the absorbance of each well of the culture plate was determined at 540 nm by a continuous wavelength microplate reader to evaluate the content of nitric oxide (NO), and anti-inflammatory activity was calculated through the following formula: Anti-inflammation=(Induced group540 nm−Experimental group540 nm)/(Induced group540 nm−Control group540 nm) In this experiment, the synergistic effects of apigenin and luteolin were evaluated by CalcuSyn software (BIOSOFT). CalcuSyn software is an analysis software which is commonly used to analyze the drug dosage effect of single drug and multiple drugs at present. CalcuSyn software can be used to analyze drug complex interactions and automatically quantify various phenomena such as synergism and inhibition. CalcuSyn software can process the data of individual drugs and combination drugs with constant-ratio or on-constant-ratio, and can evaluate the interaction of combination drugs by the combination index (CI) (Chou and Talalay, Adv. Enzyme Regul. 22:27-55 (1984) calculated by CalcuSyn software. Calculation formula for the combination index is shown in the following: Combination index=C1/IC1+C2/IC2 C1 and C2 are the respective concentrations of the first compound and the second compound at which the activity of achieving a specific physiological or medical purpose is 50% (or 75%, or 90%) when the first compound and the second compound are analyzed in combination; IC1 and IC2 are the respective concentrations at which the activity of achieving a specific physiological or medical purpose of the first compound and the second compound is 50% (or 75%, or 90%) when the first compound and the second compound are independently analyzed. […]
compound,measurement,setting,value
"O=c1cc(-c2ccc(O)cc2)oc2cc(O)cc(O)c12 [Apigenin, apigenin]",inhibition at 1.5625 µM,"RAW264.7, Batch 1",1.1%
same,inhibition at 3.125 µM,"RAW264.7, Batch 1",7%
same,inhibition at 6.25 µM,"RAW264.7, Batch 1",26.3%
same,inhibition at 12.5 µM,"RAW264.7, Batch 1",48.1%
same,inhibition at 25 µM,"RAW264.7, Batch 1",78.7%
same,inhibition at 50 µM,"RAW264.7, Batch 1",99.9%
same,inhibition at 1.5625 µM,"RAW264.7, Batch 2",2%
same,inhibition at 3.125 µM,"RAW264.7, Batch 2",16.6%
same,inhibition at 6.25 µM,"RAW264.7, Batch 2",23.7%
same,inhibition at 12.5 µM,"RAW264.7, Batch 2",32.9%
same,inhibition at 25 µM,"RAW264.7, Batch 2",74.1%
same,inhibition at 50 µM,"RAW264.7, Batch 2",99.9%
same,inhibition at 1.5625 µM,"RAW264.7, Batch 3",0.1%
same,inhibition at 3.125 µM,"RAW264.7, Batch 3",0.9%
same,inhibition at 6.25 µM,"RAW264.7, Batch 3",20.2%
same,inhibition at 12.5 µM,"RAW264.7, Batch 3",57.9%
same,inhibition at 25 µM,"RAW264.7, Batch 3",93.8%
same,inhibition at 50 µM,"RAW264.7, Batch 3",99.5%
same,inhibition at 1.5625 µM,"RAW264.7, Batch 4",0.1%
same,inhibition at 3.125 µM,"RAW264.7, Batch 4",0.1%
same,inhibition at 6.25 µM,"RAW264.7, Batch 4",12%
same,inhibition at 12.5 µM,"RAW264.7, Batch 4",45.4%
same,inhibition at 25 µM,"RAW264.7, Batch 4",93.4%
same,inhibition at 50 µM,"RAW264.7, Batch 4",99.9%
same,inhibition at 1.5625 µM,"RAW264.7, Batch 5",3.4%
same,inhibition at 3.125 µM,"RAW264.7, Batch 5",11.2%
same,inhibition at 6.25 µM,"RAW264.7, Batch 5",27.9%
same,inhibition at 12.5 µM,"RAW264.7, Batch 5",59.5%
same,inhibition at 25 µM,"RAW264.7, Batch 5",92.7%
same,inhibition at 50 µM,"RAW264.7, Batch 5",97.6%
same,inhibition at 1.5625 µM,"RAW264.7, Batch 6",18.9%
same,inhibition at 3.125 µM,"RAW264.7, Batch 6",7.4%
same,inhibition at 6.25 µM,"RAW264.7, Batch 6",28.9%
same,inhibition at 12.5 µM,"RAW264.7, Batch 6",59.4%
same,inhibition at 25 µM,"RAW264.7, Batch 6",97.2%
same,inhibition at 50 µM,"RAW264.7, Batch 6",99.9%
same,inhibition at 0.625 µM,"RAW264.7, Batch 7",0.1%
same,inhibition at 1.25 µM,"RAW264.7, Batch 7",0.1%
same,inhibition at 2.5 µM,"RAW264.7, Batch 7",3.2%
same,inhibition at 5 µM,"RAW264.7, Batch 7",30%
same,inhibition at 10 µM,"RAW264.7, Batch 7",65.3%
same,inhibition at 20 µM,"RAW264.7, Batch 7, apigenin 20 μM/5.40 μg/mL",96%
same,inhibition at 0.3125 µM,"RAW264.7, Batch 8",0.1%
same,inhibition at 0.625 µM,"RAW264.7, Batch 8",0.1%
same,inhibition at 1.25 µM,"RAW264.7, Batch 8",0.1%
same,inhibition at 2.5 µM,"RAW264.7, Batch 8",0.6%
same,inhibition at 5 µM,"RAW264.7, Batch 8",20.6%
same,inhibition at 10 µM,"RAW264.7, Batch 8",51%
same,inhibition at 0.078 µM,"RAW264.7, Batch 9, apigenin 0.078 μM/0.02 μg/mL",2%
same,inhibition at 0.156 µM,"RAW264.7, Batch 9, apigenin 0.156 μM/0.04 μg/mL",0.2%
same,inhibition at 0.3125 µM,"RAW264.7, Batch 9",10.4%
same,inhibition at 0.625 µM,"RAW264.7, Batch 9",6.5%
same,inhibition at 1.25 µM,"RAW264.7, Batch 9",6.5%
same,inhibition at 2.5 µM,"RAW264.7, Batch 9",14.9%
